This note sets out measurements from patent US20250152605A1, “METHOD AND DRUG FOR TREATING NEURONAL CEROID LIPOFUSCINOSIS” (priority 2021, published 2025).

Data set [1] relates to cathepsin D. Put plainly: Intracellular cathepsin D activity. The data set is classed as cell-based, human. Particulars: CLN3^Δex7/8 neurons. As to the method: The activity of intracellular protease cathepsin D was measured using Abcam's Cathepsin D Activity Assay kit. Each sample was prepared in more than 3 replicates. […]
Data set [2] concerns NRF2 downstream genes. Kind of data set: qRT-PCR of NRF2 downstream genes. The data set is classed as cell-based. The settings on record: CLN3^Δex7/8 human neural stem cells, 6 hours. As to the method: The cells in the cell-culture dish were collected, extracted using AxyPrep Total RNA Mini Prep Kit or Qiagen AxyPrep Total RNA Mini Prep Kit, and the extracted RNA concentration is measured using Nanodrop; the extracted mRNA was reverse transcribed into cDNA by Transgen's EasyScript® One-Step gDNA Removal and cDNA Synthesis SuperMix and the primers used for reverse transcription were Oligo dT primers; the completion of reverse transcription followed by qRT-PCR reaction through PerfectStart™ Green qPCR SuperMix to detect the expression of the target gene; the qRT-PCR reaction was performed on the Bio-Rad CFX96 Real-Time PCR system; see Table 2 and Table 3 for the 20 μL qRT-PCR reaction system and reaction procedures; data analysis was performed in Prism 7 software using the 2^−ΔΔCt process with GAPDH as internal reference for relative quantification of the expression of the target gene.
Primers were further designed, verification of qRT-PCR was conducted on the above activated genes in the downstream of NRF2. After treating CLN3^Δex7/8 human neural stem cells with Compound G for 6 hours, the cells were collected and mRNA was extracted for detecting the expression level of the genes.
Background: In qPCR the cycle at which signal appears reflects the starting amount.

The nature of data set [3]: Drug concentration in mouse brain tissue (UPLC-MS/MS). The settings on record: Cln3 KO mice. It counts as in vivo. The protocol:
In order to determine whether Compound G can pass through the blood-brain barrier and its drug concentration in the brain tissue of mice, the following experiment was performed: Compound G was dissolved in drinking water at a concentration of 1 mg/mL and fed to mice, and a solvent was added to the drinking water of control mice; mice treated with Compound G were removed at 8 different random time points, and after Avertin anesthesia, their hearts were perfused with 20 mL dPBS to rinse the blood in the mice; non-dosed mice were also perfused in the same manner as blank tissue; whole mouse brain tissue was removed, weighed, snap frozen in liquid nitrogen and ground using Mixer Mill (RETSCH MM400) with a shaking frequency of 26 beats/sec for 5 minutes; a small molecule with similar structural properties to Compound G was prepared in advance as an internal reference (denoted IS) and IS was dissolved in 80% aqueous methanol to 100 ng/ml. […]
After using dPBS to completely perfuse the systemic blood, the mice were euthanized and the brain tissues thereof were taken out. The drug concentrations of Compound G in the mouse brain tissues were measured.

For data set [4], the system named is CLN3^Δex7/8 human neurons. Kind of data set: Lysotracker staining of CLN3^Δex7/8 human neurons, flow cytometry. It counts as cell-based. The protocol: In analyzing the mean fluorescence intensity of neural stem cells and neuronal staining or single cell establishment of NRK cells, flow cytometry was used: the cell medium was aspirated off, after wash with dPBS once, the digestive enzyme corresponding to the cell type was added to digest into single cells; the supernatant was removed by centrifugation, and the cells were resuspended with 1 mL of fresh medium; the cell suspension with filtered through 40 μm filter membrane and the single cell filtrate was collected; the single cell filtrate was transferred to a flow tube and analyzed or sorted using BD FACS Aria III; in the analysis, the fluorescence intensity of 1×10^4 cells for each sample was analyzed to obtain the mean fluorescence intensity (MFI); for sorting, cells were received in 96 well plates with medium, one cell per well to establish a cell line.
Studies above have shown that CLN3^Δex7/8 human neurons feature lysosomal acidity dysregulation. To investigate the effect of Compound G on lysosomal acidity in CLN3^Δex7/8 neurons, Lysotracker dye was used for staining and flow cytometry was used for analyzing the fluorescence intensity of Lysotracker dye in cells.

Turning to `C/C=C1\C(=O)C[C@H]2[C@@H]3CCC4=CC(=O)CC[C@]4(C)[C@H]3CC[C@]12C` [Compound G, (Z)-guggulsterone], the “activity of cathepsins D (fluorescence intensity)” value in data set [1] is on record as “significantly increased”. The “expression level of most NRF2 downstream genes” value in data set [2] is “significantly increase”. In data set [3] (1 mg/mL in drinking water, different time points (n=8)), the “average concentration in the mouse brain” value was 814.74±834.19 ng/g brain tissue. For the same compound, the “penetration of the blood-brain barrier” value in data set [3] (drinking water) is listed as “could penetrate the blood-brain barrier”. Further, the “Lysotracker fluorescence intensity in CLN3^Δex7/8 human neurons” value in data set [4] was “increased significantly”.
